We go through two compounds from article PMC6882484, “Influence of verapamil on the pharmacokinetics of oridonin in rats” (Pharmaceutical Biology, 2019).

One data set concerns Caco-2 cell monolayers. Briefly: Bidirectional transport across Caco-2 cell transwell model. The data set is classed as in vitro ADME. Conditions: Caco-2, digoxin 25 µM, verapamil present. The method, then: (§1) The Caco-2 cell line was obtained from the American Type Culture Collection (Manassas, VA, USA), and it was performed according to the previous study (Liu et al. [2018]). The Caco-2 cells were cultured in DMEM high glucose medium containing 15% FBS, 1% NEAA and 100 U/mL penicillin and 100 µg/mL streptomycin. The cells were cultured at 37 °C with 5% CO2. For transport studies, the cells at passage 40 were seeded on transwell polycarbonate insert filters (1.12 cm^2 surface, 0.4 µm pore size, 12 mm diameter; Corning Costar Corporation, MA, USA) in 12-well plates at a density of 1 × 10^5 cells/cm^2. Cells were allowed to grow for 21 days. For the first seven days, the medium was replaced every two days, and then daily. The transepithelial electrical resistance (TEER) of the monolayer cells was measured using Millicell ERS-2 (Millipore Corporation, Billerica, MA, USA), and TEER exceeding 400 Ω·cm^2 was used for the flux experiment. The integrity of the Caco-2 monolayers was confirmed by the paracellular flux of Lucifer yellow, which was less than 1% per hour. The alkaline phosphatase activity was validated using an Alkaline Phosphatase Assay Kit. The qualified monolayers were used for transport studies. Before the transport experiments, the cell monolayers were rinsed twice using warm (37 °C) HBSS, then the cells were incubated at 37 °C for 20 min. After preincubation, the cell monolayers were incubated with oridonin in fresh incubation medium added on either the apical or basolateral side for the indicated times at 37 °C. […] The permeability of oridonin (2 µM) in all of the above condition s for both directions, i.e., from the apical (AP) side to the basolateral (BL) side and from the BL side to the AP side, was measured after incubation for 30, 60, 90 and 120 min at 37 °C. In addition, the efflux activity of P-gp was validated using a typical P-gp substrate digoxin (25 µM). The apparent permeability coefficient (Papp) was calculated using the equation of Artursson and Karlsson: Papp=(ΔQ/Δt)×[1/(A×C0)] where Papp is the apparent permeability coefficient (cm/s), ΔQ/Δt (µmol/s) is the rate at which the compound appears in the receiver chamber, C0 (µmol/L) is the initial concentration of the compound in the donor chamber and A (cm^2) represents the surface area of the cell monolayer. Data were collected from three separate experiments, and each was performed in triplicate. In addition, the efflux activity of P-gp was validated using a typical P-gp substrate digoxin (25 µM).
A general note: Passage across Caco-2 layers is used to estimate intestinal permeability.

In another data set the test system is P-gp. The description is as above. It is filed as in vitro ADME. Conditions: human; Caco-2, digoxin 25 µM, P-gp substrate validation, without verapamil. The method, then: as §1
Experiment in data set [1]: as above
The data set is classed as in vitro ADME. Conditions: human, Caco-2, oridonin 2 µM; for Papp B→A at 2 µM: basolateral to apical. The method, then: as §1

Data set [2] in a line: Metabolic stability in rat liver microsomes. It is filed as in vitro ADME. Conditions: for microsomal CLint at 1 µM: read-out: intrinsic clearance rate; for half-life at 1 µM: read-out: metabolic half-life (t1/2). As to the method:
Rat liver microsomes were used to investigate the effects of verapamil on the metabolism clearance of oridonin, and the assay conditions and reaction mixtures were similar to those reported previously (Wang et al. [2017]; Yan et al. [2017]). In brief, 30 µL rat liver microsome (20 mg/mL), 12 µL oridonin solution (100 µM) and 1113 µL PBS buffer (0.1 M, pH 7.4) were added to the centrifuge tubes on ice. There was a 5 min preincubation step at 37 °C before initiating the reaction by adding NADPH-generating system (45 µL) into the microsomal suspension. The effects of verapamil or ketoconazole (a positive CYP3A4 inhibitor) on the metabolic stability of oridonin were investigated by adding 10 µM of verapamil or ketoconazole (12 µL, final concentration of 0.1 µM) to rat liver microsomes and preincubating them for 30 min at 37 °C, followed by the addition of NADPH-generating system. Aliquots of 100 µL were collected from the reaction volumes at 0.083, 0.167, 0.33, 0.5, 1, 2, 4, 8, 12, 24 and 36 h after the addition of oridonin, and 200 µL ice-cold acetonitrile containing esculin was added to terminate the reaction. All the experiments were performed in triplicate. The subsequent sample preparation method was same as the method of plasma sample preparation, and the concentration of oridonin was determined by LC-MS.
The in vitro half-life (t1/2) was obtained using the equation: t1/2=0.693/k; V (µL/mg)=volume of incubation (µL)/protein in the incubation (mg); Intrinsic clearance (Clint) (µL/min/mg protein)=V × 0.693/t1/2.
A general note: Liver microsomes are a subcellular fraction often used to study metabolism.

A short description of data set [3]: In vivo pharmacokinetic study of oridonin in rats with or without verapamil pre-treatment. Conditions: Sprague-Dawley, rat, plasma, po, intragastrical oridonin (40 mg/kg; n = 6, mean ± SD); for CL/F: read-out: CLz/F (oral clearance) (converted). The method, then: To evaluate the effects of verapamil on the pharmacokinetics of oridonin, the rats were divided into two groups of six animals each. The pre-treatment group was pre-treated with verapamil at a dose of 10 mg/kg/day (dissolved directly in normal saline containing 0.5% methylcellulose at a concentration of 2 mg/mL) for 7 days before the administration of oridonin. […] The dose of verapamil and oridonin were based on previous reports (Xu et al. [2006]; Zhu et al. [2017]; Huang et al. [2018]; Zhou et al. [2019]). The control group was without the pre-treatment of verapamil before the oral administration of oridonin. Blood samples (250 µL) were collected into heparinized tubes via the oculi chorioideae vein at 0.083, 0.33, 0.5, 1, 2, 4, 6, 8, 10, 12, 24 and 36 h after the oral administration of oridonin. The blood samples were centrifuged at 3500 rpm for 5 min. The plasma samples that were obtained were stored at −40 °C until analysis.
To 100 µL aliquot of a plasma sample, 20 µL methanol and 180 µL internal standard methanol solution (2 ng/mL) were added and vortexed for 60 s to mix in a 1.5 mL polypropylene tube, and were centrifuged at 12,000 rpm for 10 min. The supernatant was removed into an injection vial, and a 3 µL aliquot was injected into the LC-MS/MS system for analysis.
The determination of oridonin was performed on Agilent 1290 series liquid chromatography system and an Agilent 6470 triple-quadruple mass spectrometer (Palo Alto, CA, USA). The HPLC/MS conditions and sample preparation were basically according to a validated HPLC method described before (Jin et al. [2015]; Zhang et al. [2019]). The chromatographic analysis of oridonin was performed on a Waters X-Bridge C18 column (3.0 × 100 mm, i.d.; 3.5 µm, USA) at room temperature (25 °C). The mobile phase was water (containing 0.1% formic acid) and acetonitrile (30:70, v:v) with isocratic elution at a flow rate of 0.2 mL/min, and the analysis time was 4 min.
The mass scan mode was positive MRM mode. The precursor ion and product ion are m/z 365.3→347.3 for oridonin and m/z 252.1→155.9 for IS. The collision energy for oridonin and IS were 30 and 20 eV, respectively. The MS/MS conditions were optimized as follows: fragmentor, 110 V; capillary voltage, 3.5 kV; nozzle voltage, 500 V; nebulizer gas pressure (N2), 40 psig; drying gas flow (N2), 10 L/min; gas temperature, 350 °C; sheath gas temperature, 400 °C; sheath gas flow, 11 L/min.
The pharmacokinetic parameters, including the area under the plasma concentration-time curve (AUC), maximal plasma concentration (Cmax), the time for the maximal plasma concentration (Tmax), and the mean residence time (MRT) were calculated using the DAS 3.0 pharmacokinetic software (Chinese Pharmacological Association, Anhui, China).

On the set-up of data set [4]: method as in Xu et al. [2006]. Conditions: oral administration in rats; ref Xu et al. [2006]; cited from earlier work.
[5] abbreviates: with verapamil (concentration not stated), verapamil present.
[6] abbreviates: pre-treatment of verapamil (10 mg/kg/day for 7 days).

Read-outs that look alike come from different tables or passages of the source.

As usually defined, the efflux ratio is the permeability from basolateral to apical divided by that in the opposite direction, in the common usage. In the case of `C[C@H]1O[C@@H](O[C@H]2[C@@H](O)C[C@H](O[C@H]3[C@@H](O)C[C@H](O[C@H]4CC[C@@]5(C)[C@H](CC[C@@H]6[C@@H]5C[C@@H](O)[C@]5(C)[C@@H](C7=CC(=O)OC7)CC[C@]65O)C4)O[C@@H]3C)O[C@@H]2C)C[C@H](O)[C@@H]1O` [digoxin], in the data set with Caco-2 cell monolayers, the efflux ratio result is recorded as “abrogated”. In the data set on P-gp, the efflux ratio at 25 µM was 10.1.
Broadly, the Papp B→A is the apparent permeability from the basolateral to the apical side of a cell layer. For orientation: Papp A→B means the apparent permeability from the apical to the basolateral side of a cell layer. Read a high Papp A→B as ready permeation. One may read the Cmax as the maximum level reached in the sampled fluid or tissue. A word on the AUC(0-t): it is exposure summed from dosing to a finite time, without extrapolation to infinity. As usually defined, the MRT is a mean duration of stay, worked out from the concentration-time curve. The Tmax is the time from dosing to the highest level. In the case of `C=C1C(=O)[C@]23[C@H](O)[C@H]1CC[C@H]2[C@@]12CO[C@]3(O)[C@@H](O)[C@@H]1C(C)(C)CC[C@@H]2O` [oridonin], the efflux ratio at 2 µM in data set [1] (pH 7.4, without verapamil) came out at 1.67. Moreover, in data set [1] (setting [5]), the basolateral-to-apical permeability (Papp B→A) at 2 µM was 0.222 ± 0.032 ×10⁻⁶ cm/s and the efflux ratio at 2 µM is 1.15. Moreover, in data set [1] (apical to basolateral, HBSS pH 7.4, 37 °C, without verapamil), the apical-to-basolateral permeability (Papp A→B) at 2 µM came out at 0.191 ± 0.015 ×10⁻⁶ cm/s. The compound also came in with a Papp B→A at 2 µM in data set [1] (HBSS pH 7.4, 37 °C, without verapamil) of 0.32 ± 0.016 ×10⁻⁶ cm/s. Besides, in data set [2] (pH 7.4, oridonin alone), the microsomal CLint at 1 µM worked out at 40.1 ± 2.5 µL/min/mg and the half-life at 1 µM was 0.577 ± 0.045 h. The half-life at 1 µM in data set [2] (pH 7.4, with verapamil 0.1 µM, in the presence of verapamil) was 0.64 ± 0.055 h. The microsomal CLint at 1 µM in data set [2] (pH 7.4, with verapamil 0.1 µM, verapamil present) turned out to be 36.1 ± 3.7 µL/min/mg. Further, the highest concentration (Cmax) in data set [3] (40 mg/kg, control without verapamil) was 147 ± 10.2 ng/mL. Moreover, in data set [3] (control without verapamil), the area under the curve AUC(0-t) was found to be 1310 ± 290 ng·h/mL, the MRT is 9.25 ± 1.1 h, the time to peak (Tmax) stood at 1 ± 0.12 h and the half-life was 10.9 ± 4.38 h. In addition, the CL/F in data set [3] (control without verapamil) is 245 mL/min/kg. In data set [3] (setting [6]), the exposure AUC(0-t) amounted to 2230 ± 530 ng·h/mL, the peak concentration (Cmax) came out at 194 ± 10.5 ng/mL, the MRT was determined as 11.5 ± 1.5 h and the Tmax was 1 ± 0.18 h. In data set [3] (setting [6]), the half-life is 13.7 ± 4.81 h and the CL/F was 135 mL/min/kg. Further, the “bioavailability (available after oral administration)” value in data set [4] is given as 11%.
